Results from patent EP3417074B1, “ANALYTICAL METHODS AND ARRAYS FOR USE IN THE SAME” (SenzaGen AB, priority 2016, dated 2017).
“And” between values parts separate entries of the source, which are not always exact repeats. Equal entries are not always repeated. Where two headings read alike, the source gives them in different places.

Columns and labels:
MUTZ-3 cells [1] = tested on: MUTZ-3 cells
human skin = settings: cited from earlier work
MUTZ-3 cells [2] = settings: for SVM DV: human
Description: (§1) The SVM model had been developed for binary classifications (sensitizer versus non-sensitizer).

MUTZ-3 cells [3] = tested on: MUTZ-3 cells; remark: listed apart in the source
[4] = cited from earlier work; for binary class: Table 4; for binary class (HP*): Table 1, based on [41] where available, HP 1-4=S, 5-6=NS, otherwise according to CLP
MUTZ-3 cells [5] = experiment: GARD random forest model for prediction of CLP categories (52 transcripts, Example A); settings: for predicted CLP: Suppl. Table 1, separate replicates in the test set; for GARD predicted CLP: Table 6, independent test set, majority voting across replicates
MUTZ-3 cells [6] = experiment: GARD binary classification (SVM on GARD prediction signature, 200 transcripts); settings: Table 1; sensitizer if median calibrated SVM DV of replicates > 0
Description: as §1

MUTZ-3 cells [7] = experiment: Cytotoxicity / viability by flow cytometry (propidium iodide); settings: Table 1, 24 hours exposure

SMILES: CC=Cc1ccc(OC)cc1 [anethole]
- GARD predicted CLP (MUTZ-3 cells [1]; human, 24 h): 1B
- predicted CLP (MUTZ-3 cells [1]; human, 24 h): 1B
- HP (human skin): 5
- Human potency [41] (human skin): 5

SMILES: Nc1ccccc1 [aniline]
- binary classification according to the established GARD model (MUTZ-3 cells [2]): misclassified
- cytotox (MUTZ-3 cells [3]): no
- HP (human skin): 4

SMILES: O=C(O)c1ccccc1 [benzoic acid]
- cytotox (MUTZ-3 cells [3]): no
- binary class [4]: non-sens
- predicted CLP (MUTZ-3 cells [5]): no cat
- GARD predicted CLP (MUTZ-3 cells [5]): no cat

SMILES: CC(C)(c1ccc(OCC2CO2)cc1)c1ccc(OCC2CO2)cc1 (stereo not shown) [bisphenol A-diglycidyl ether]
- cytotox (MUTZ-3 cells [3]): yes
- HP (human skin): 3
- Human potency [41] (human skin): 3
- GARD binary prediction (MUTZ-3 cells [6]): S
- predicted CLP (MUTZ-3 cells [5]): 1A
- GARD predicted CLP (MUTZ-3 cells [5]): 1A

SMILES: CCCCOCC1CO1 (stereo not shown) [butyl glycidyl ether]
- binary classification according to the established GARD model (MUTZ-3 cells [2]): misclassified
- CLP category predicted by the random forest model (MUTZ-3 cells [1]; human, 24 h): 1A
- GARD predicted CLP (MUTZ-3 cells [1]; human, 24 h): 1A
- cytotox (MUTZ-3 cells [3]): yes
- HP (human skin): 3
- Human potency [41] (human skin): 3
- human potency category (human skin): 3

SMILES: CCOc1cc(C=O)ccc1O [ethyl vanillin]
- GARD predicted CLP (MUTZ-3 cells [1]): no cat
- predicted CLP (MUTZ-3 cells [1]): no cat
- predicted CLP (MUTZ-3 cells [1]; human, 24 h): 1B

SMILES: C=CCc1ccc(O)c(OC)c1 [eugenol]
- SVM DV (MUTZ-3 cells [2]; 24 h): 1,02
- HP (human skin): 3
- Human potency (human skin): 3

SMILES: C=O [formaldehyde]
- SVM DV (MUTZ-3 cells [2]): 2,32
- HP (human skin): 2
- Human potency (human skin): 2

SMILES: NC[C@H]1O[C@H](O[C@H]2[C@H](O)[C@@H](O[C@H]3O[C@H](CO)[C@@H](O)[C@H](N)[C@H]3O)[C@H](N)C[C@@H]2N)[C@H](O)[C@@H](O)[C@@H]1O [kanamycin A]
- cytotox (MUTZ-3 cells [3]): no
- binary class [4]: non-sens

SMILES: CC(C=O)Cc1ccc(C(C)(C)C)cc1 (stereo not shown) [lilial]
- GARD binary prediction (MUTZ-3 cells [2]): S
- cytotox (MUTZ-3 cells [3]): yes
- HP (human skin): 4
- binary class (HP*) [4]: S
- binary class [4]: sens

SMILES: CC(C)(O)CCCC1=CCC(C=O)CC1 (stereo not shown) [lyral]
- human potency category (human skin; Basketter et al. [41]): 2
- HP (human skin; Table 4): 2
- Human potency [41] (human skin; Table 6, test set): 2
- binary class (HP*) [4]: S
- binary class [4]: sens
- cytotox (MUTZ-3 cells [7]): yes
- GARD binary prediction (MUTZ-3 cells [6]): S
- predicted CLP (MUTZ-3 cells [5]): 1A (2×) and 1B
- GARD predicted CLP (MUTZ-3 cells [5]): 1A
- CLP category predicted by the random forest model (MUTZ-3 cells [5]; test set, majority votes): 1A

SMILES: O=C1C=CC(=O)C=C1 [p-benzoquinone]
- GARD binary prediction (MUTZ-3 cells [2]): S
- cytotox (MUTZ-3 cells [7]): yes
- predicted CLP (MUTZ-3 cells [5]): 1A
- GARD predicted CLP (MUTZ-3 cells [5]): 1A

SMILES: Oc1ccccc1 [phenol]
- SVM DV (MUTZ-3 cells [2]): -1,08
- HP (human skin): 6
- Human potency (human skin): 6

SMILES: CCCOC(=O)c1cc(O)c(O)c(O)c1 [propyl gallate]
- HP (human skin; Table 4): 2
- Human potency [41] (human skin; Table 6, test set): 2
- binary class (HP*) [4]: S
- binary class [4]: sens
- cytotox (MUTZ-3 cells [7]): yes
- GARD binary prediction (MUTZ-3 cells [6]): S
- predicted CLP (MUTZ-3 cells [5]): 1A
- GARD predicted CLP (MUTZ-3 cells [5]): 1A

SMILES: c1ccncc1 [pyridine]
- cytotox (MUTZ-3 cells [3]): no
- HP (human skin): 5

SMILES: CCCCCCCCCCCCOS(=O)(=O)[O-].[Na+] [sodium dodecyl sulfate]
- SVM DV (MUTZ-3 cells [2]): -1,52
- HP (human skin): 6
- Human potency (human skin): 6
